Data reported in patent publication US7238689B2, “Isoxazoline derivative and herbicide comprising the same as active ingredient” (Ihara Chemical Industry Co., Ltd., priority 2001, dated 2007).

Experiments:
Format in all cases: in vivo
Design in all cases: scale not given here
[1] = test system: Echinochloa oryzicola Vasing; assay: Herbicidal effect by paddy field soil treatment; settings: wettable powder, active ingredient 1000 g/ha, examined at the 21st day from the treatment
Procedure: (§1) A paddy field soil was filled in a plastic pot of 100 cm^2 and subjected to puddling. Then, seeds of Echinochloa oryzicola Vasing and Monochoria vaginalis (Murm. f.) Presl var. plantaginea (Roxb.) Solms-Laub. were sowed and water was filled in a depth of 3 cm. Next day, wettable powders produced in accordance with the Formulation 1 were diluted with water and dropped on the water surface. The application amount of each wettable powder was 1,000 g per 1 hectare in terms of the active ingredient. Then, breeding was made in a greenhouse, and the herbicidal effect of each wettable powder was examined at the 21st day from the treatment in accordance with the standard shown in Table 21.

[2] = test system: Monochoria vaginalis (Murm. f.) Presl var. plantaginea (Roxb.) Solms-Laub.; assay: Herbicidal effect by paddy field soil treatment; settings: wettable powder, active ingredient 1000 g/ha, examined at the 21st day from the treatment
Procedure: as §1

[3] = test system: Echinochloa crus-galli (L.) Beauv. var. crusgalli; assay: Herbicidal effect by upland field soil treatment; settings: active ingredient 1000 g/ha, examined at 21st day from treatment
Description: (§2) An upland field soil was filled in a plastic pot of 80 cm^2. Seeds of Echinochloa crus-galli (L.) Beauv. var. crusgalli and Setaria viridis (L.) Beauv. were sowed, followed by covering with the same soil. […] Then, breeding was made in a greenhouse, and the herbicidal effect of each wettable powder was examined at the 21st day from the treatment in accordance with the standard shown in Table 21.

[4] = test system: Setaria viridis (L.) Beauv.; assay: Herbicidal effect by upland field soil treatment; settings: active ingredient 1000 g/ha, examined at 21st day from treatment
Description: as §2

CCOCn1nc(Cl)c(CS(=O)(=O)C2=NOC(C)(C)C2)c1C(F)(F)F [3-0121]
5: Herbicidal effect index, Echinochloa oryzicola Vasing [1] | Herbicidal effect index, Monochoria vaginalis (Burm. F.) Presl var. plantaginea (Roxb.) Solms-Laub. [2] | herbicidal effect (index per standard of Table 21), Echinochloa curs-galli (L.) Beauv. Var. crus-galli [3] | herbicidal effect (index per standard of Table 21), Setaria viridis (L.) Beauv. [4]

COCCn1nc(C(F)(F)F)c(CS(=O)(=O)C2=NOC(C)(C)C2)c1Cl [3-0124]
5: Herbicidal effect index, Echinochloa oryzicola Vasing [1] | Herbicidal effect index, Monochoria vaginalis (Burm. F.) Presl var. plantaginea (Roxb.) Solms-Laub. [2] | herbicidal effect (index per standard of Table 21), Echinochloa curs-galli (L.) Beauv. Var. crus-galli [3] | herbicidal effect (index per standard of Table 21), Setaria viridis (L.) Beauv. [4]

COCCn1nc(Cl)c(CS(=O)(=O)C2=NOC(C)(C)C2)c1C(F)(F)F [3-0125]
5: Herbicidal effect index, Echinochloa oryzicola Vasing [1] | Herbicidal effect index, Monochoria vaginalis (Burm. F.) Presl var. plantaginea (Roxb.) Solms-Laub. [2] | herbicidal effect (index per standard of Table 21), Echinochloa curs-galli (L.) Beauv. Var. crus-galli [3] | herbicidal effect (index per standard of Table 21), Setaria viridis (L.) Beauv. [4]

CCOCCn1nc(C(F)(F)F)c(CS(=O)(=O)C2=NOC(C)(C)C2)c1Cl [3-0126]
5: Herbicidal effect index, Echinochloa oryzicola Vasing [1] | Herbicidal effect index, Monochoria vaginalis (Burm. F.) Presl var. plantaginea (Roxb.) Solms-Laub. [2] | herbicidal effect (index per standard of Table 21), Echinochloa curs-galli (L.) Beauv. Var. crus-galli [3] | herbicidal effect (index per standard of Table 21), Setaria viridis (L.) Beauv. [4]

CCOCCn1nc(Cl)c(CS(=O)(=O)C2=NOC(C)(C)C2)c1C(F)(F)F [3-0127]
5: Herbicidal effect index, Echinochloa oryzicola Vasing [1] | Herbicidal effect index, Monochoria vaginalis (Burm. F.) Presl var. plantaginea (Roxb.) Solms-Laub. [2] | herbicidal effect (index per standard of Table 21), Echinochloa curs-galli (L.) Beauv. Var. crus-galli [3] | herbicidal effect (index per standard of Table 21), Setaria viridis (L.) Beauv. [4]

CSCn1nc(C(F)(F)F)c(CS(=O)(=O)C2=NOC(C)(C)C2)c1Cl [3-0128]
5: Herbicidal effect index, Echinochloa oryzicola Vasing [1] | Herbicidal effect index, Monochoria vaginalis (Burm. F.) Presl var. plantaginea (Roxb.) Solms-Laub. [2] | herbicidal effect (index per standard of Table 21), Echinochloa curs-galli (L.) Beauv. Var. crus-galli [3] | herbicidal effect (index per standard of Table 21), Setaria viridis (L.) Beauv. [4]

CSCn1nc(Cl)c(CS(=O)(=O)C2=NOC(C)(C)C2)c1C(F)(F)F [3-0129]
5: Herbicidal effect index, Echinochloa oryzicola Vasing [1] | Herbicidal effect index, Monochoria vaginalis (Burm. F.) Presl var. plantaginea (Roxb.) Solms-Laub. [2] | herbicidal effect (index per standard of Table 21), Echinochloa curs-galli (L.) Beauv. Var. crus-galli [3] | herbicidal effect (index per standard of Table 21), Setaria viridis (L.) Beauv. [4]

CC1(C)CC(S(=O)(=O)Cc2c(C(F)(F)F)nn(CS(C)(=O)=O)c2Cl)=NO1 [3-0130]
5: Herbicidal effect index, Echinochloa oryzicola Vasing [1] | Herbicidal effect index, Monochoria vaginalis (Burm. F.) Presl var. plantaginea (Roxb.) Solms-Laub. [2] | herbicidal effect (index per standard of Table 21), Echinochloa curs-galli (L.) Beauv. Var. crus-galli [3] | herbicidal effect (index per standard of Table 21), Setaria viridis (L.) Beauv. [4]

CC1(C)CC(S(=O)(=O)Cc2c(Cl)nn(CS(C)(=O)=O)c2C(F)(F)F)=NO1 [3-0131]
5: Herbicidal effect index, Echinochloa oryzicola Vasing [1] | Herbicidal effect index, Monochoria vaginalis (Burm. F.) Presl var. plantaginea (Roxb.) Solms-Laub. [2] | herbicidal effect (index per standard of Table 21), Echinochloa curs-galli (L.) Beauv. Var. crus-galli [3] | herbicidal effect (index per standard of Table 21), Setaria viridis (L.) Beauv. [4]

CC1(C)CC(S(=O)(=O)Cc2c(C(F)(F)F)nn(CC#N)c2Cl)=NO1 [3-0134]
5: Herbicidal effect index, Echinochloa oryzicola Vasing [1] | Herbicidal effect index, Monochoria vaginalis (Burm. F.) Presl var. plantaginea (Roxb.) Solms-Laub. [2] | herbicidal effect (index per standard of Table 21), Echinochloa curs-galli (L.) Beauv. Var. crus-galli [3] | herbicidal effect (index per standard of Table 21), Setaria viridis (L.) Beauv. [4]

CC1(C)CC(S(=O)(=O)Cc2c(Cl)nn(CC#N)c2C(F)(F)F)=NO1 [3-0135]
5: Herbicidal effect index, Echinochloa oryzicola Vasing [1] | Herbicidal effect index, Monochoria vaginalis (Burm. F.) Presl var. plantaginea (Roxb.) Solms-Laub. [2] | herbicidal effect (index per standard of Table 21), Echinochloa curs-galli (L.) Beauv. Var. crus-galli [3] | herbicidal effect (index per standard of Table 21), Setaria viridis (L.) Beauv. [4]

CCOC(=O)Cn1nc(Cl)c(CS(=O)(=O)C2=NOC(C)(C)C2)c1C(F)(F)F [3-0137]
5: Herbicidal effect index, Echinochloa oryzicola Vasing [1] | Herbicidal effect index, Monochoria vaginalis (Burm. F.) Presl var. plantaginea (Roxb.) Solms-Laub. [2] | herbicidal effect (index per standard of Table 21), Echinochloa curs-galli (L.) Beauv. Var. crus-galli [3] | herbicidal effect (index per standard of Table 21), Setaria viridis (L.) Beauv. [4]

CC1(C)CC(S(=O)(=O)Cc2c(Cl)nn(CC(N)=O)c2C(F)(F)F)=NO1 [3-0139]
5: Herbicidal effect index, Echinochloa oryzicola Vasing [1] | Herbicidal effect index, Monochoria vaginalis (Burm. F.) Presl var. plantaginea (Roxb.) Solms-Laub. [2] | herbicidal effect (index per standard of Table 21), Echinochloa curs-galli (L.) Beauv. Var. crus-galli [3] | herbicidal effect (index per standard of Table 21), Setaria viridis (L.) Beauv. [4]

CC1(C)CC(S(=O)(=O)Cc2c(C(F)(F)F)nn(-c3ccccc3)c2C(F)(F)F)=NO1 [3-0153]
5: Herbicidal effect index, Echinochloa oryzicola Vasing [1] | Herbicidal effect index, Monochoria vaginalis (Burm. F.) Presl var. plantaginea (Roxb.) Solms-Laub. [2] | herbicidal effect (index per standard of Table 21), Echinochloa curs-galli (L.) Beauv. Var. crus-galli [3] | herbicidal effect (index per standard of Table 21), Setaria viridis (L.) Beauv. [4]

CCOc1c(CS(=O)(=O)C2=NOC(C)(C)C2)c(C(F)(F)F)nn1-c1ccccc1 [3-0156]
5: Herbicidal effect index, Echinochloa oryzicola Vasing [1] | Herbicidal effect index, Monochoria vaginalis (Burm. F.) Presl var. plantaginea (Roxb.) Solms-Laub. [2] | herbicidal effect (index per standard of Table 21), Echinochloa curs-galli (L.) Beauv. Var. crus-galli [3] | herbicidal effect (index per standard of Table 21), Setaria viridis (L.) Beauv. [4]

CC1(C)CC(S(=O)(=O)Cc2c(C(F)(F)F)nn(-c3ncccn3)c2Cl)=NO1 [3-0173]
5: Herbicidal effect index, Echinochloa oryzicola Vasing [1] | Herbicidal effect index, Monochoria vaginalis (Burm. F.) Presl var. plantaginea (Roxb.) Solms-Laub. [2] | herbicidal effect (index per standard of Table 21), Echinochloa curs-galli (L.) Beauv. Var. crus-galli [3] | herbicidal effect (index per standard of Table 21), Setaria viridis (L.) Beauv. [4]

COc1cc(OC)nc(-n2nc(C(F)(F)F)c(CS(=O)(=O)C3=NOC(C)(C)C3)c2Cl)n1 [3-0174]
5: Herbicidal effect index, Echinochloa oryzicola Vasing [1] | Herbicidal effect index, Monochoria vaginalis (Burm. F.) Presl var. plantaginea (Roxb.) Solms-Laub. [2] | herbicidal effect (index per standard of Table 21), Echinochloa curs-galli (L.) Beauv. Var. crus-galli [3] | herbicidal effect (index per standard of Table 21), Setaria viridis (L.) Beauv. [4]

CCC1(C)CC(S(=O)(=O)Cc2c(C(F)(F)F)nn(C)c2Cl)=NO1 (stereo not shown) [3-0180]
5: Herbicidal effect index, Echinochloa oryzicola Vasing [1] | Herbicidal effect index, Monochoria vaginalis (Burm. F.) Presl var. plantaginea (Roxb.) Solms-Laub. [2] | herbicidal effect (index per standard of Table 21), Echinochloa curs-galli (L.) Beauv. Var. crus-galli [3] | herbicidal effect (index per standard of Table 21), Setaria viridis (L.) Beauv. [4]

Cc1onc(-c2ccccc2)c1CS(=O)(=O)C1=NOC(C)(C)C1 [4-0007]
5: Herbicidal effect index, Echinochloa oryzicola Vasing [1] | Herbicidal effect index, Monochoria vaginalis (Burm. F.) Presl var. plantaginea (Roxb.) Solms-Laub. [2] | herbicidal effect (index per standard of Table 21), Echinochloa curs-galli (L.) Beauv. Var. crus-galli [3] | herbicidal effect (index per standard of Table 21), Setaria viridis (L.) Beauv. [4]
